34 molecules from patent US20250388593A1 (MITSUBISHI TANABE PHARMA CORPORATION, priority 2023, published 2025) can be followed below.

The structures appear in SMILES notation.

Sequence of CRBN truncate (318-426) (Q96SW2 318-426): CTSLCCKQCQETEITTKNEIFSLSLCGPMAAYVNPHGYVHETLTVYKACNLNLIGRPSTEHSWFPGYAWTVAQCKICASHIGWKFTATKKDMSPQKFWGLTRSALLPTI

This test deals with CRBN truncate (318-426) (Homo sapiens (Human), UniProt Q96SW2). Briefly: Measurement of molecular interactions using surface plasmon resonance (SPR), Biacore T200. The class given is binding. The following applies: 25° C., immobilized CRBN truncate, upper limit of measurement 200 μM. As for the experimental part:
The instrument used was the Biacore T200 (manufactured by Cytiva). The CRBN truncate (318-426) was obtained by expressing a construct with an Avi-tag added at the C-terminus. The sensor chip used was Sensor Chip SA (manufactured by Cytiva). The CRBN truncate was immobilized using the affinity between SA (streptavidin) on the sensor chip and the Avi-tag. The running buffer was a mixture of 10 mM HEPES pH 7.5, 150 mM NaCl, 1 mM TCEP, 0.005% Tween 20, and 2% DMSO. […] Contact time and dissociation time were set at 60 seconds and 120 seconds, respectively.
Background: SPR reads the build-up and loss of mass on a sensor chip optically.
For orientation: Kd means the concentration at which binding is half-saturated. Read a low Kd as higher affinity. The molecule `COc1ccc2nc(N3CC4(CC(=O)N(C5CCC(=O)NC5=O)C4=O)C3)sc2c1` (stereo not shown) [Example 238, 6-(2,6-Dioxopiperidin-3-yl)-2-(6-methoxy-1,3-benzothiazol-2-yl)-2,6-diazaspiro[3.4]octane-5,7-dione] displayed a Kd of less than 50 µM.

Consider `N#Cc1ccc(N2CCC3(CCCC(=O)NC3=O)C2)cc1` (stereo not shown) [Example 179, 4-(6,8-Dioxo-2,7-diazaspiro[4.6]undecan-2-yl)benzonitrile], for which the dissociation constant (Kd) is less than 50 µM.

In the case of `CC(C)(C)OC(=O)c1cnc(N2CCCC(=O)NC2=O)s1` [Example 115, tert-Butyl 2-(2,4-dioxo-1,3-diazepan-1-yl) thiazole-5-carboxylate], the Kd was 50 to 100 µM.

Molecule `O=C1CCCN(c2ccc3ncccc3c2)C(=O)N1` [Example 117, 1-Quinolin-6-yl-1,3-diazepane-2,4-dione] gave a Kd of no less than 100 µM.

In the case of `CC(C)(C)OC(=O)NCCCCCCn1ccc2c(C(=O)N3CCC4(CCCC(=O)NC4=O)C3)cccc21` (stereo not shown) [Example 162, tert-Butyl N-[6-[4-(6,8-dioxo-2,7-diazaspiro [4.6]undecane-2-carbonyl)indol-1-yl]hexyl]carbamate], the Kd was 50 to 100 µM.

Consider `Cc1sc2c(c1C)C(c1ccc(Cl)cc1)=N[C@@H](CC(=O)NCCCCCCCNc1ccc3nc(N4CCCC(=O)NC4=O)sc3c1)c1nnc(C)n1-2` [Example 312, 2-[(9S)-7-(4-chlorophenyl)-4,5,13-trimethyl-3-thia-1,8,11,12-tetraazatricyclo[8.3.0.02,6]trideca-2(6),4,7,10,12-pentaen-9-yl]-N-[7-[[2-(2,4-dioxo-1,3-diazepan-1-yl)-1,3-benzothiazol-6-yl]amino]heptyl]acetamide], for which the Kd was less than 50 µM.

`CC(C)(C)OC(=O)/C=C/c1nn(C2CCCC(=O)NC2=O)c2ccccc12` (stereo not shown) [Example 136]: the Kd was in the range of 50 to 100 µM.

As to `CC(C)(C)OC(=O)NCCc1ccc(S(=O)(=O)N2CC3(CC(=O)N(C4CCC(=O)NC4=O)C3=O)C2)cc1` (stereo not shown) [Example 278, tert-Butyl N-[2-[4-[[6-(2,6-dioxopiperidin-3-yl)-5,7-dioxo-2,6-diazaspiro [3.4]octan-2-yl]sulfonyl]phenyl]ethyl]carbamate], the Kd was no less than 100 µM.

`Cc1sc2c(c1C)C(c1ccc(Cl)cc1)=N[C@@H](CC(=O)NCCCCCCCCNC(=O)CCc1ccc3c(c1)sc(=O)n3C1CCCC(=O)NC1=O)c1nnc(C)n1-2` (stereo partly drawn) [Example 342, N-[8-[[2-[(9S)-7-(4-chlorophenyl)-4,5,13-trimethyl-3-thia-1,8,11,12-tetraazatricyclo[8.3.0.02,6]trideca-2(6),4,7,10,12-pentaen-9-yl]acetyl]amino]octyl]-3-[3-(2,7-dioxoazepan-3-yl)-2-oxo-1,3-benzothiazol-6-yl]propanamide] returned a Kd of less than 50 µM.

`Cc1sc2c(c1C)C(c1ccc(Cl)cc1)=N[C@@H](CC(=O)NCCCCCCCNC(=O)COc1cccc(C(=O)NC3CCCC(=O)NC3=O)n1)c1nnc(C)n1-2` (stereo partly drawn) [Example 347, 6-[2-[7-[[2-[(9S)-7-(4-chlorophenyl)-4,5,13-trimethyl-3-thia-1,8,11,12-tetraazatricyclo[8.3.0.02,6]trideca-2(6),4,7,10,12-pentaen-9-yl]acetyl]amino]heptylamino]-2-oxo-ethoxy]-N-(2,7-dioxoazepan-3-yl)pyridine-2-carboxamide] had a Kd of less than 50 µM.

`O=C1NC(=O)[C@@]2(c3ccc(Br)cc3)CC[C@@H]1O2` (racemic) [Example 173, 1-(4-Bromophenyl)-8-oxa-3-azabicyclo [3.2.1]octane-2,4-dione] showed a Kd of no less than 100 µM.

Consider `O=C1CCCN(c2nc3ccc([N+](=O)[O-])cc3s2)C(=O)N1` [Example 116, 1-(6-Nitro-1,3-benzothiazol-2-yl)-1,3-diazepane-2,4-dione], for which the Kd was less than 50 µM.

For the molecule `O=C1CCCC2(CCN(c3ccc([N+](=O)[O-])cc3)C2)C(=O)N1` (stereo not shown) [Example 80, 2-(4-Nitrophenyl)-2,7-diazaspiro[4.6]undecane-6,8-dione], the Kd is less than 50 µM.

With `CC(C)(C)OC(=O)N1CCN(C2CCCC(=O)NC2=O)C(=O)C1=O` (stereo not shown) [Example 29-2, tert-Butyl 4-(2,7-dioxoazepan-3-yl)-2,3-dioxopiperazine-1-carboxylate], the Kd is no less than 100 µM.

In the case of `CC(C)(C)OC(=O)c1ccc(N2CCCC3(CCCC(=O)NC3=O)C2)nc1` (stereo not shown) [Example 93, tert-Butyl 6-(7,9-dioxo-2,8-diazaspiro [5.6]dodecan-2-yl) pyridine-3-carboxylate], the Kd is no less than 100 µM.

For the molecule `Cn1c(=O)c(=O)n(C2CCCC(=O)NC2=O)c2ccccc21` (stereo not shown) [Example 259, 1-(2,7-Dioxoazepan-3-yl)-4-methylquinoxaline-2,3-dione], the Kd is no less than 100 µM.

Molecule `CC(C)(C)OC(=O)C(C)(C)N1CC2(CC(=O)N(C3CCC(=O)NC3=O)C2=O)C1` (stereo not shown) [Example 49, tert-Butyl 2-[6-(2,6-dioxopiperidin-3-yl)-5,7-dioxo-2,6-diazaspiro[3.4]octan-2-yl]-2-methylpropanoate] had a Kd of no less than 100 µM.

Consider `O=C1CCCC(Oc2ccccc2[N+](=O)[O-])C(=O)N1` (stereo not shown) [Example 66-1, 3-(2-Nitrophenoxy) azepane-2,7-dione], for which the equilibrium dissociation constant (Kd) is no less than 100 µM.

`CC(C)(C)OC(=O)c1ccc(N2CCC3(CCCC(=O)NC3=O)CC2=O)cc1` (stereo not shown) [Example 109, tert-Butyl 4-(4,7,9-trioxo-3,8-diazaspiro [5.6]dodecan-3-yl) benzoate] gave a Kd of less than 50 µM.

With `Cc1sc2c(c1C)C(c1ccc(Cl)cc1)=N[C@@H](CC(=O)NCCCCCCc1ccc(-c3cn(C4CCCC(=O)NC4=O)nn3)cc1)c1nnc(C)n1-2` (stereo partly drawn) [Example 316, 2-[(9S)-7-(4-chlorophenyl)-4,5,13-trimethyl-3-thia-1,8,11,12-tetraazatricyclo[8.3.0.02,6]trideca-2(6),4,7,10,12-pentaen-9-yl]-N-[6-[4-[1-(2,7-dioxoazepan-3-yl)triazol-4-yl]phenyl]hexyl]acetamide], the Kd is less than 50 µM.

For the molecule `CC(C)(C)OC(=O)Cn1c(=O)n(C2CCCC(=O)NC2=O)c2ccccc21` (stereo not shown) [Example 138, tert-Butyl 2-[3-(2,7-dioxoazepan-3-yl)-2-oxo-benzimidazol-1-yl]acetate], the Kd fell in the range of 50 to 100 µM.

For the molecule `Cc1sc2c(c1C)C(c1ccc(Cl)cc1)=N[C@@H](CC(=O)NCCCCCCc1ccc(C(=O)N3CCC4(CCCC(=O)NC4=O)C3)cc1Cl)c1nnc(C)n1-2` (stereo partly drawn) [Example 323, N-[6-[2-chloro-4-(6,8-dioxo-2,7-diazaspiro[4.6]undecane-2-carbonyl)phenyl]hexyl]-2-[(9S)-7-(4-chlorophenyl)-4,5,13-trimethyl-3-thia-1,8,11,12-tetraazatricyclo[8.3.0.02,6]trideca-2(6),4,7,10,12-pentaen-9-yl]acetamide], the Kd was less than 50 µM.

The molecule `CC(C)(C)OC(=O)NCCCCCCCCn1ccc2c(N3CC4(CC(=O)N(C5CCC(=O)NC5=O)C4=O)C3)ncnc21` (stereo not shown) [Example 236, tert-Butyl N-[8-[4-[6-(2,6-dioxopiperidin-3-yl)-5,7-dioxo-2,6-diazaspiro[3.4]octan-2-yl]pyrrolo[2,3-d]pyrimidin-7-yl]octyl]carbamate] gave a Kd of less than 50 µM.

With `Cc1ccc(NC(=O)NCc2ccc(C(=O)N3CCC4(CCCC(=O)NC4=O)C3)cc2)cc1Cl` (stereo not shown) [Example 157, 1-(3-Chloro-4-methylphenyl)-3-[[4-(6,8-dioxo-2,7-diazaspiro[4.6]undecane-2-carbonyl)phenyl]methyl]urea], the Kd is less than 50 µM.

The molecule `Cn1c(=O)n(C2CCCC(=O)NC2=O)c2ccc(CCC(=O)OC(C)(C)C)cc21` (stereo not shown) [Example 141] registered a Kd of 50 to 100 µM.

`COc1cccc2sc(N3CCC4(CCCC(=O)NC4=O)C3)nc12` (stereo not shown) [Example 189, 2-(4-Methoxy-1,3-benzothiazol-2-yl)-2,7-diazaspiro[4.6]undecane-6,8-dione] returned a Kd of no less than 100 µM.

Take `COc1ccc2nn(C3CCCC(=O)NC3=O)nc2c1` (stereo not shown) [Example 251, 3-(5-Methoxybenzotriazol-2-yl)azepane-2,7-dione]: the Kd was no less than 100 µM.

`CC(C)(C)OC(=O)NCc1cn(C2CCCC(=O)NC2=O)nn1` (stereo not shown) [Example 1, tert-Butyl N-[[1-(2,7-dioxoazepan-3-yl)triazol-4-yl]methyl]carbamate] gave a Kd of no less than 100 µM.

Regarding `Nc1ccc(C(=O)N2CCC3(CCCC(=O)NC3=O)C2)cc1` (stereo not shown) [Example 155, 2-(4-Aminobenzoyl)-2,7-diazaspiro[4.6]undecane-6,8-dione], the Kd was no less than 100 µM.

`CN1C(=O)C(C)(N2C=CCC(=O)NC2=O)c2cccc(/C=C/C(=O)OC(C)(C)C)c21` (stereo not shown) [Example 289, tert-Butyl (E)-3-[3-(2,4-dioxo-5H-1,3-diazepin-1-yl)-1,3-dimethyl-2-oxoindolin-7-yl]prop-2-enoate] returned a Kd of less than 50 µM.

As to `CC(C)(C)OC(=O)c1ccc(N2CCC3(CCCC(=O)NC3=O)C2=O)nc1` (stereo not shown) [Example 90-2, tert-Butyl 6-(1,9,11-trioxo-2,10-diazaspiro [4.6]undecan-2-yl) pyridine-3-carboxylate], the Kd was no less than 100 µM.

Take `Cc1sc2c(c1C)C(c1ccc(Cl)cc1)=N[C@@H](CC(=O)NCCCCCCc1cccc3c(C(=O)N4CCC5(CCCC(=O)NC5=O)C4)cccc13)c1nnc(C)n1-2` (stereo partly drawn) [Example 324, 2-[(9S)-7-(4-chlorophenyl)-4,5,13-trimethyl-3-thia-1,8,11,12-tetraazatricyclo[8.3.0.02,6]trideca-2(6),4,7,10,12-pentaen-9-yl]-N-[6-[5-(6,8-dioxo-2,7-diazaspiro[4.6]undecane-2-carbonyl)naphthalen-1-yl]hexyl]acetamide]: the Kd was less than 50 µM.

For `Cn1c(C(=O)OC(C)(C)C)cc2c(N3CCC4(CCCC(=O)NC4=O)C3)ncnc21` (stereo not shown) [Example 180, tert-Butyl 4-(6,8-dioxo-2,7-diazaspiro[4.6]undecan-2-yl)-7-methylpyrrolo[2,3-d]pyrimidine-6-carboxylate], the Kd lay in the range of 50 to 100 µM.

The molecule `COc1cccc2c1nnn2C1CCCC(=O)NC1=O` (stereo not shown) [Example 255, 3-(4-Methoxybenzotriazol-1-yl)azepane-2,7-dione] yielded a Kd of no less than 100 µM.
